Molecular target: T1, human mAChR M1 (Homo sapiens, UniProt P11229)
T1 construct: hM1 and hM4 cDNAs were purchased from Missouri S&T cDNA Resource; host or cells: CHO-K1 cells, stably transfected with Lipofectamine2000
T1 sequence (P11229 1-460): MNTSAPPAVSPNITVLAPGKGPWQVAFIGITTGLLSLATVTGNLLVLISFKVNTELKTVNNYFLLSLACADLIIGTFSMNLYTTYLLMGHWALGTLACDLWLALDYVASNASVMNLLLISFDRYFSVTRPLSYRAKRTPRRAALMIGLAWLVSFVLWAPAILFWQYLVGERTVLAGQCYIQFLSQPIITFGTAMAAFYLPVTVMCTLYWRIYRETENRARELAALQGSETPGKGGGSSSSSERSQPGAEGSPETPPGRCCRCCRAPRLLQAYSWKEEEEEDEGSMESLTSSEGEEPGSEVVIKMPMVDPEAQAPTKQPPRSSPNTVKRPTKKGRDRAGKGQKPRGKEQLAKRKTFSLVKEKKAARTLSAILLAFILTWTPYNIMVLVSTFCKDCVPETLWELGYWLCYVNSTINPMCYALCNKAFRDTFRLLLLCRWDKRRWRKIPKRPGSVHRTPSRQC
Assay: mAChR M1 cell-based functional assay (calcium mobilization, PAM mode, EC20 acetylcholine)
Details: CHO-K1 cells expressing hM1, calcium flux (Fluo-4); for Emax: EC20 acetylcholine response; for EC50: concentration-dependent increase in the EC20 acetylcholine response
Description: Chinese hamster ovary (CHO-K1) cells stably expressing rat (r)M1 were purchased from the American Type Culture Collection and cultured according to their indicated protocol. CHO cells stably expressing human (h)M2, hM3, and hM5 were described previously (Levey, et al., 1991); hM1 and hM4 cDNAs were purchased from Missouri S&T cDNA Resource; rM4 cDNA was provided by T. I. Bonner (National Institutes of Health, Bethesda, Md.). rM2 and rM3 were cloned from a rat brain cDNA library and sequence verified. hM1, rM2, rM3, hM4, and rM4 cDNAs were used to stably transfect CHO-K1 cells purchased from the American Type Culture Collection using Lipofectamine2000. To make stable rM2, hM2, rM3, hM4, and rM4 cell lines for use in calcium mobilization assays, these cells also were stably transfected with a chimeric G-protein (Gqi5) (provided by B. R. Conklin, University of California, San Francisco) using Lipofectamine 2000. rM1, hM1, rM3, hM3, rM5, and hM5 cells were grown in Ham's F-12 medium containing 10% heat-inactivated fetal bovine serum (FBS), 20 mM HEPES, and 50 µg/mL G418 sulfate. rM2-Gqi5, hM2-Gqi5, and hM4-Gqi5 cells were grown in the same medium also containing 500 μg/mL Hygromycin B. Stable rM4-Gqi5 cells were grown in DMEM containing 10% heat-inactivated FBS, 20 mM HEPES, 400 μg/mL G418 sulfate, and 500 μg/mL Hygromycin B.
For high throughput measurement of agonist-evoked increases in intracellular calcium, CHO-K1 cells stably expressing muscarinic receptors were plated in growth medium lacking G418 and hygromycin at 15,000 cells/20 μL/well in Greiner 384-well black-walled, tissue culture (TC)-treated, clear-bottom plates (VWR). Cells were incubated overnight at 37° C. and 5% CO2. The next day, cells were washed using an ELX 405 (BioTek) with four washes (80 μL) of assay buffer then aspirated to 20 μL. Next, 20 μL of 16 μM Fluo-4/acetoxymethyl ester (Invitrogen, Carlsbad, Calif.) prepared as a 2.3 mM stock in DMSO and mixed in a 1:1 ratio with 10% (w/v) Pluronic F-127 and diluted in assay buffer was added to the wells and the cell plates were incubated for 50 min at 37° C. and 5% CO2. Dye was removed by washing with the ELX 405 (four 80 μL washes of assay buffer) then aspirated to 20 μL. Compound master plates were formatted in an 11 point CRC format (1:3 dilutions) in 100% DMSO with a starting concentration of 10 mM using the BRAVO liquid handler (Agilent). Test compound CRCs were then transferred to daughter plates (240 nL) using the Echo acoustic plate reformatter (Labcyte, Sunnyvale, Calif.) and then diluted into assay buffer (40 μL) to a 2× stock using a Thermo Fisher Combi (Thermo Fisher Scientific, Waltham, Mass.).
Calcium flux was measured using the Functional Drug Screening System (FDSS) 6000 (Hamamatsu Corporation, Tokyo, Japan) as an increase in the fluorescent static ratio. Compounds were applied to cells (20 μL, 2×) using the automated system of the FDSS 6000 at 4 s into the 300 s protocol and the data were collected at 1 Hz. […] Agonist activity was analyzed as a concentration-dependent increase in calcium mobilization upon compound addition. Emax values for agonist activity are expressed relative to the maximum for acetylcholine. Positive allosteric modulator activity was analyzed as a concentration-dependent increase in the EC20 acetylcholine response. Antagonist activity was analyzed as a concentration-dependent decrease in the […] acetylcholine response. Concentration-response curves were generated using a four-parameter logistical equation in XLfit curve fitting software (IDBS, Bridgewater, N.J.) for Excel (Microsoft, Redmond, Wash.) or Prism (GraphPad Software, Inc., San Diego, Calif.).
Activity (EC50 and Emax) was determined in the mAChR M1 cell-based functional assay as described above and the data are shown in Table 2. The compound numbers correspond to the compound numbers used in Table 1.

| Compound | Emax [%] | EC50 [nM] |
| --- | --- | --- |
| O=C(N[C@H]1CCOC[C@@H]1O)c1cc(Cc2ccc(-n3cccn3)cc2)cc2cccnc12 [compound 1, N-[(3R,4S)-3-hydroxytetrahydropyran-4-yl]-6-[(4-pyrazol-1-ylphenyl)methyl]quinoline-8-carboxamide] | 80 | 460 |
| O=C(N[C@H]1CCCC[C@@H]1O)c1cc(Cc2ccc(-n3cccn3)cc2)cc2cccnc12 [compound 2, N-[(1S,2S)-2-hydroxycyclohexyl]-6-[(4-pyrazol-1-ylphenyl)methyl]quinoline-8-carboxamide] | 81 | 1000 |
| O=C(NC1CCOCC1)c1cc(Cc2ccc(-n3cccn3)cc2)cc2cccnc12 [compound 3, 6-[(4-pyrazol-1-ylphenyl)methyl]-N-tetrahydropyran-4-yl-quinoline-8-carboxamide] | 45 | 2980 |
| O=C(NC1CC2(COC2)C1)c1cc(Cc2ccc(-n3cccn3)cc2)cc2cccnc12 [compound 4, N-(2-oxaspiro[3.3]heptan-6-yl)-6-[(4-pyrazol-1-ylphenyl)methyl]quinoline-8-carboxamide] | 67 | 6030 |
| O=C(N[C@H]1CCC[C@@H]1O)c1cc(Cc2ccc(-n3cccn3)cc2)cc2cccnc12 [compound 5, N-[(1S,2S)-2-hydroxycyclopentyl]-6-[(4-pyrazol-1-ylphenyl)methyl]quinoline-8-carboxamide] | 76 | 1660 |
| O=C(N[C@H]1CC[C@@H]1O)c1cc(Cc2ccc(-n3cccn3)cc2)cc2cccnc12 [compound 6, N-[(1S,2S)-2-hydroxycyclobutyl]-6-[(4-pyrazol-1-ylphenyl)methyl]quinoline-8-carboxamide] | 57 | 5490 |
| O=C(N[C@H]1CCCCC[C@@H]1O)c1cc(Cc2ccc(-n3cccn3)cc2)cc2cccnc12 [compound 7, N-[(1S,2S)-2-hydroxycycloheptyl]-6-[(4-pyrazol-1-ylphenyl)methyl]quinoline-8-carboxamide] | 87 | 2030 |
| O=C(NCC1CCOCC1)c1cc(Cc2ccc(-n3cccn3)cc2)cc2cccnc12 [compound 8, 6-[(4-pyrazol-1-ylphenyl)methyl]-N-(tetrahydropyran-4-ylmethyl)quinoline-8-carboxamide] | 49 | 8160 |
| Cn1ccc(-c2ccc(Cc3cc(C(=O)N[C@H]4CCOC[C@@H]4O)c4ncccc4c3)cn2)n1 [compound 9, N-[(3R,4S)-3-hydroxytetrahydropyran-4-yl]-6-[[6-(1-methylpyrazol-3-yl)-3-pyridyl]methyl]quinoline-8-carboxamide] | 79 | 308 |
| Cn1ccc(-c2ccc(Cc3cc(C(=O)N[C@H]4CCCCC[C@@H]4O)c4ncccc4c3)cn2)n1 [compound 10, N-[(1S,2S)-2-hydroxycycloheptyl]-6-[[6-(1-methylpyrazol-3-yl)-3-pyridyl]methyl]quinoline-8-carboxamide] | 84 | 922 |
| Cn1ccc(-c2ccc(Cc3cc(C(=O)N[C@H]4CCCC[C@@H]4O)c4ncccc4c3)cn2)n1 [compound 11, N-[(1S,2S)-2-hydroxycyclohexyl]-6-[[6-(1-methylpyrazol-3-yl)-3-pyridyl]methyl]quinoline-8-carboxamide] | 82 | 384 |
| Cn1ccc(-c2ccc(Cc3cc(C(=O)N[C@H]4CCC[C@@H]4O)c4ncccc4c3)cn2)n1 [compound 12, N-[(1S,2S)-2-hydroxycyclopentyl]-6-[[6-(1-methylpyrazol-3-yl)-3-pyridyl]methyl]quinoline-8-carboxamide] | 82 | 1390 |
| Cn1ccc(-c2ccc(Cc3cc(C(=O)N[C@H]4CC[C@@H]4O)c4ncccc4c3)cn2)n1 [compound 13, N-[(1S,2S)-2-hydroxycyclobutyl]-6-[[6-(1-methylpyrazol-3-yl)-3-pyridyl]methyl]quinoline-8-carboxamide] | 75 |  |
| Cn1ccc(-c2ccc(Cc3cc(C(=O)NC4CC5(COC5)C4)c4ncccc4c3)cn2)n1 [compound 14, 6-[[6-(1-methylpyrazol-3-yl)-3-pyridyl]methyl]-N-(2-oxaspiro[3.3]heptan-6-yl)quinoline-8-carboxamide] | 73 | 5290 |
| Cn1ccc(-c2ccc(Cc3cc(C(=O)NC4CCOCC4)c4ncccc4c3)cn2)n1 [compound 15, 6-[[6-(1-methylpyrazol-3-yl)-3-pyridyl]methyl]-N-tetrahydropyran-4-yl-quinoline-8-carboxamide] | 66 |  |
| Cc1nc(-c2ccc(Cc3cc(C(=O)N[C@H]4CCOC[C@@H]4O)c4ncccc4c3)cc2)co1 [compound 16, N-[(3R,4S)-3-hydroxytetrahydropyran-4-yl]-6-[[4-(2-methyloxazol-4-yl)phenyl]methyl]quinoline-8-carboxamide] | 86 | 438 |
| Cc1nc(-c2ccc(Cc3cc(C(=O)N[C@H]4CCCCC[C@@H]4O)c4ncccc4c3)cc2)co1 [compound 17, N-[(1S,2S)-2-hydroxycycloheptyl]-6-[[4-(2-methyloxazol-4-yl)phenyl]methyl]quinoline-8-carboxamide] | 65 | 1820 |
| Cc1nc(-c2ccc(Cc3cc(C(=O)N[C@H]4CCCC[C@@H]4O)c4ncccc4c3)cc2)co1 [compound 18, N-[(1S,2S)-2-hydroxycyclohexyl]-6-[[4-(2-methyloxazol-4-yl)phenyl]methyl]quinoline-8-carboxamide] | 82 | 784 |
| Cc1nc(-c2ccc(Cc3cc(C(=O)N[C@H]4CCC[C@@H]4O)c4ncccc4c3)cc2)co1 [compound 19, N-[(1S,2S)-2-hydroxycyclopentyl]-6-[[4-(2-methyloxazol-4-yl)phenyl]methyl]quinoline-8-carboxamide] | 61 | 2170 |
| Cc1nc(-c2ccc(Cc3cc(C(=O)NC4CC5(COC5)C4)c4ncccc4c3)cc2)co1 [compound 20, 6-[[4-(2-methyloxazol-4-yl)phenyl]methyl]-N-(2-oxaspiro[3.3]heptan-6-yl)quinoline-8-carboxamide] | 48 | 4360 |
| Cn1cc2c(-c3cc(F)c(Cc4cc(C(=O)N[C@H]5CCOC[C@@H]5O)c5ncccc5c4)c(F)c3)cccc2n1 [compound 21, 6-[[2,6-difluoro-4-(2-methylindazol-4-yl)phenyl]methyl]-N-[(3R,4S)-3-hydroxytetrahydropyran-4-yl]quinoline-8-carboxamide] | 67 | 3140 |

From patent US20200131159A1, “POSITIVE ALLOSTERIC MODULATORS OF THE MUSCARINIC ACETYLCHOLINE RECEPTOR M1” (Vanderbilt University, priority 2018, published 2020)
